Reference: paper PMC6201930 (PLoS ONE, 2018)
Values joined by “and” are separate entries in the source; they are usually repeats but may differ in a detail not shown here. Equal values may be shown once. Read-outs that look alike come from different tables or passages of the source.

What was measured:
[1] = system: tGFP-CFTR542X-HA-HIS construct (codon 542 UGA) in 293H cells; assay: tGFP-542X readthrough assay (HA-HIS MSD immunoassay); format: cell-based, human
[2] = Neuromast toxicity assay (DASPEI staining); conditions: zebrafish, zebrafish embryos 5 dpf, neuromasts (hair cells), other: embryos exposed to the drug in 24-well plates
Method: All neuromast cytotoxicity assays were done at Biobide–BBD Biophenix SL (Gipuzkoa, Spain). […] Compounds were tested at 5 doses. After 24 hours of exposure embryos were incubated in DASPEI (2-(4-(dimethylamino)styryl) -N-Ethylpyridinium Iodide) for neuromast staining. Images of each embryo were taken and neuromasts counted. A compound was classified as ototoxic when the number of neuromasts in the treated group was less than that in the untreated control group (One Way ANOVA, multiple comparisons vs. vehicle).

[3] = Cytotoxicity in stimulated PBMCs (CellTitre-Glo ATP); conditions: human
Description: (§1) When considering compounds for potential readthrough therapy it is important to monitor cellular and animal safety. In order to determine the most promising compounds to further evaluate in in vivo safety, we measured cytotoxicity in two different cell types. We used activated human peripheral blood mononuclear cells (PBMCs) (Table 2 and Fig 2D and 2E). PBMCs are a primary cell that when activated with phytohaemagglutinin (PHA) expand quickly and are commonly used as an in vitro surrogate for rapidly growing cells in the human body to evaluate cytotoxicity. Prior to advancing compounds into human studies, safety evaluation in rodents is performed. As an in vitro surrogate for rodent toxicity, we used primary mouse myoblasts.
(§2) Frozen human Peripheral Blood Mononuclear Cells (PBMCs) were obtained from […] (Alameda, CA, Cat# PB003F) from a single donor. […] Plates were incubated at 37°C with 5% CO2 for 4 hours prior to compound treatment. Compounds were serially diluted and added to the plates. Plates were incubated at 37°C, 5% CO2 incubator, for 72 hours prior to determinations of ATP levels. Cell viability was determined using a chemiluminescent assay to monitor adenosine triphosphate (ATP) levels in live cells (CellTitre-Glo; CTG; Promega, Cat#G7571). Methods were performed per the manufacturer’s instructions.

[4] = system: activated human peripheral blood mononuclear cells (PBMCs); assay: as above; conditions: read-out: Stimulated PBMC CC50, individual determinations (S1 File)
Description: as §1, §2

[5] = system: fLuc mRNA harboring a UGA nonsense mutation at codon 190 (fLuc-190-NS); format: biochemical, rabbit
Description: ThefLuc-190-NS assay is an in vitro rabbit reticulocyte lysate translation of an fLuc mRNA harboring a UGA nonsense mutation at codon 190 (fLuc-190-NS). It is believed that positively charged aminoglycosides are poorly taken up by cells, and we used this cell-free readthrough assay to eliminate the potential variable of cell uptake when measuring readthrough potency. […] Readthrough protein was detected using a HA-HIS MSD immunoassay described previously.
This cell-free translation assay used synthetic LUC mRNAs harboring an EMCV IRES and LUC codon 190-UGA premature stop codon prepared using the MegaScript in vitro transcription kit (Ambion). Translation reactions were done with the Rabbit Reticulocyte Lysate System (Promega) with 100 ng RNA and increasing concentrations of aminoglycosides. The amount of luminescence produced was determined after approximately 4 hours using a Viewlux CCD imager (Perkin-Elmer). Fold suppression over background was calculated as (aminoglycoside light units/PBS light units).

[6] = system: p53 R213* UGA premature termination codon in HDQ-P1 mammary carcinoma cells; assay: HDQ-p53UGA213 readthrough assay (full-length p53, MSD immunoassay); format: cell-based, human; conditions: for HDQ-p53UGA213 (Maxfold): maximum readthrough activity above background
Method: We utilized HDQ-P1 mammary carcinoma cells, which are homozygous for R213*, a UGA premature termination codon in the gene for the tumor suppressor protein p53 [30]. […] Western blot hybridization and Meso Scale Discovery (MSD) immunoassay detection of p53 were done as previously described. […] Cells (45K per well) were grown in 96-well plates and treated with compounds for 24 hours. […] Cells were lysed with 60 μl per well of lysis buffer (20 mM Tris-HCL, pH 7.5, 1 mM EGTA, 1 mM EDTA,150 mM Nacl, 0.5% Triton X100) for one hour at room temperature and 30 μl of lysate per well were transferred to the coated plate and incubated overnight at 4 °C. […] Plates were then washed three times with PBS-T and 30 μl of 0.25 μ/ml goat anti-rabbit IgG-Sulfo-tag antibody (MSD) in TBS-C was added and incubated for 1 hour at room temperature. Plates were then washed three times with PBS-T and 150 μl read buffer (MSD) was added. Plates were read immediately in a SECTOR S 600 (MSD).

[7] = Cytotoxicity in myoblasts; conditions: mouse, primary mouse myoblasts
Description: as §1

[8] = system: primary mouse myoblasts; assay: Cytotoxicity in myoblasts; conditions: read-out: Myoblast CC50; individual determinations (S1 File)
Description: as §1

[9] = 293H cells, 24 hours, average ± SD
[10] = individual experiments (S1 File)
[11] = individual experiments (S1 File), unit not printed for EC5X (EC2X of the sheet in uM)
[12] = maximum readthrough above background, average ± SD
[13] = Neuromast CC50, AVERAGE (S1 File)
[14] = Neuromast CC50, individual determinations (S1 File)
[15] = Stimulated PBMC CC50, AVERAGE (S1 File)
[16] = AVERAGE (S1 File), unit not given for EC5X
[17] = concentration required to double the level of full-length p53 protein, average ± SD, at least three experiments, highest concentration 300 μM
[18] = individual experiments (S1 File), max fold
[19] = Myoblast CC50, AVERAGE (S1 File)
[20] = Myoblast CC50, individual determinations (S1 File)
[21] = individual experiments (S1 File), listed as PTC-0302307 (C1)
[22] = individual experiments (S1 File), unit not printed for EC5X (EC2X of the sheet in uM), listed as PTC-0302307 (C1)

| SMILES | tGFP-542X EC2X [1, 9] [µM] | tGFP-542X EC2X ([1]; AVERAGE (S1 File)) [µM] | tGFP-542X Maxfold ([1]; AVERAGE (S1 File)) | tGFP-542X EC2X [1, 10] | tGFP-542X Maxfold [1, 10] | tGFP-542X EC5X [1, 11] | tGFP-542X Maxfold [1, 12] [fold] | CC50 at 24 h [2, 13] [µM] | CC50 at 24 h [2, 14] [µM] | fLuc-190-NS EC2X ([5]; AVERAGE (S1 File)) [µM] | fLuc-190-NS MaxFold ([5]; AVERAGE (S1 File)) | fLuc-190-NS EC5X [5, 16] | fLuc-190-NS EC2X ([5]; cell-free, average ± SD) [µM] | fLuc-190-NS MaxFold ([5]; cell-free, average ± SD) [fold] | fLuc-190-NS EC2X [5, 10] | fLuc-190-NS MaxFold [5, 10] | fLuc-190-NS EC5X [5, 11] | HDQ-p53UGA213 EC2X ([6]; AVERAGE (S1 File)) [µM] | HDQ-p53UGA213 max ([6]; AVERAGE (S1 File)) | HDQ-p53UGA213 EC2X [6, 17] [µM] | also measured |
| --- | --- | --- | --- | --- | --- | --- | --- | --- | --- | --- | --- | --- | --- | --- | --- | --- | --- | --- | --- | --- | --- |
| CN[C@@H]1[C@@H](O)[C@@H](O[C@@H]2[C@@H](O)[C@H](O[C@H]3O[C@H]([C@H](C)N)CC[C@H]3N)[C@@H](N)C[C@H]2N)OC[C@]1(C)O [Gentamicin C2a, gentamicin C2a] | 583 ± 110 | 582.8 | 2.8 | 691 µM and 586 µM and 471.89 µM | 2.62 and 2.35 and 3.32 | >1000 | 3 ± 0.5 | 2.7 | 2.7 | 1.1 | 32.1 | 2.8 | 1.077 ± 0.029 | 32 ± 5 | 1.08 µM and 1.10 µM and 1.05 µM | 26.96 and 33.13 and 36.29 | 2.91 and 2.75 and 2.60 | 251.7 | 4.2 | 252 ± 49 | CC50 at 72 h [3, 15]: 6710 µM; CC50 [4]: > 1250 µM; HDQ-p53UGA213 EC2X ([6]; concentration required to double the level of full-length p53 protein, average ± SD, at least three experiments, highest concentration 300 μM, listed as C2a): triple digit; HDQ-p53UGA213 EC2X [6, 10]: 217.36 µM and 286.09 µM; HDQ-p53UGA213 max [6, 18]: 3.40 and 5.00; HDQ-p53UGA213 (Maxfold) ([6]; average ± SD): 4 ± 1 fold; CC50 [7, 19]: 5680 µM; CC50 [7, 20]: 4640 µM |
| CN[C@@H]1[C@@H](O)[C@@H](O[C@@H]2[C@@H](O)[C@H](O[C@H]3O[C@H]([C@@H](C)N)CC[C@H]3N)[C@@H](N)C[C@H]2N)OC[C@]1(C)O [Gentamicin C2, gentamicin C2] | 266 ± 44 | 265.9 | 8.9 | 225 µM and 260 µM and 312.48 µM | 11 and 9 and 7.29 | 566 and 647 and 748.53 | 9 ± 2 | 2.8 | 2.8 | 1.1 | 97.2 | 1.9 | 1.086 ± 0.763 | 97 ± 12 | 1.97 µM and 0.62 µM and 0.67 µM | 84.91 and 97.65 and 109.15 | 2.76 and 1.44 and 1.41 | 141.9 | 5.8 | 142 ± 86 | tGFP-542X EC5X [1, 16]: 653.9; CC50 at 72 h [3, 15]: 2180 µM; CC50 [4]: 3800 µM and 566 µM; HDQ-p53UGA213 EC2X ([6]; concentration required to double the level of full-length p53 protein, average ± SD, at least three experiments, highest concentration 300 μM, listed as C2): triple digit; HDQ-p53UGA213 EC2X [6, 10]: 34.99 µM and 16.61 µM and 97.73 µM and 112.3 µM and 133.88 µM and 91.16 µM and 121.67 µM and 256.3 µM and 179.64 µM and 255.57 µM and 260.59 µM; HDQ-p53UGA213 max [6, 18]: 4.1 and 15.8 and 4 and 3.2 and 5.2 and 3.9 and 2.4 and 15.7 and 3.5 and 3; HDQ-p53UGA213 (Maxfold) ([6]; average ± SD): 6 ± 5 fold; CC50 [8]: 6100 µM and 4310 µM and 911 µM; CC50 [7, 19]: 3780 µM |
| CN[C@@H]1[C@@H](O)[C@@H](O[C@@H]2[C@@H](O)[C@H](O[C@H]3O[C@H](CO)[C@@H](O)[C@H](O)[C@H]3N)[C@@H](N)C[C@H]2N)OC[C@H]1O [Gentamicin A, gentamicin A] | 385 ± 123 | 385.2 | 3.8 | 490.42 µM and 415.81 µM and 249.27 µM | 3.32 and 4.14 and 3.99 | >1000 | 4 ± 0.4 | 17 | 17 | 0.45 | 6.7 | 2.0 | 0.45 ± 0.015 | 6.7 ± 0.4 | 0.44 µM and 0.47 µM and 0.45 µM | 6.38 and 6.62 and 7.20 | 1.95 and 2.14 | 585.5 | 2.7 | 586 ± 100 | CC50 at 72 h [3, 15]: 3620 µM; CC50 [4]: > 1250 µM and 3620 µM; HDQ-p53UGA213 EC2X [6, 10]: 658.30 µM and 626.86 µM and 471.32 µM; HDQ-p53UGA213 max [6, 18]: 2.50 and 3.24 and 2.45; HDQ-p53UGA213 (Maxfold) ([6]; average ± SD): 3 ± 0.4 fold; CC50 [7, 19]: 6210 µM; CC50 [7, 20]: 6210 µM |
| CN[C@@H]1[C@@H](O)[C@@H](O[C@@H]2[C@@H](O)[C@H](O[C@H]3O[C@H]([C@@H](C)NC)CC[C@H]3N)[C@@H](N)C[C@H]2N)OC[C@]1(C)O [Gentamicin C1, gentamicin C1] | 439 ± 192 | 439.1 | 3.4 |  |  |  | 3 ± 2 | 9.4 | 9.4 | 1.1 | 18.9 | 2.6 | 1.061 ± 0.262 | 19 ± 2 |  |  |  | 311.4 | 4.8 | 311 ± 321 | tGFP-542X EC5X [1, 16]: 825.7; tGFP-542X EC2X [1, 21]: 303 µM and 575 µM and >1000 µM; tGFP-542X Maxfold [1, 21]: 6 and 2 and 1.70; tGFP-542X EC5X [1, 22]: 826 and >1000; CC50 at 72 h ([3]; Stimulated PBMC CC50, individual determinations (S1 File)): > 1250 µM; CC50 ([4]; listed as PTC-0302307 (C1)): > 1000 µM; fLuc-190-NS EC2X [5, 21]: 1.36 µM and 0.90 µM and 0.92 µM; fLuc-190-NS MaxFold [5, 21]: 18.25 and 17.61 and 20.78; fLuc-190-NS EC5X [5, 22]: 2.89 and 2.68 and 2.37; HDQ-p53UGA213 EC2X ([6]; concentration required to double the level of full-length p53 protein, average ± SD, at least three experiments, highest concentration 300 μM, listed as C1): triple digit; HDQ-p53UGA213 EC2X [6, 21]: 74.03 µM and 776.89 µM and 269.47 µM and 125.28 µM; HDQ-p53UGA213 max ([6]; individual experiments (S1 File), max fold, listed as PTC-0302307 (C1)): 6.40 and 2.10 and 2.50 and 8.00; HDQ-p53UGA213 (Maxfold) ([6]; average ± SD): 5 ± 3 fold |
| CN[C@@H]1[C@@H](O)[C@@H](O[C@@H]2[C@@H](O)[C@H](O[C@H]3OC(CN)=CC[C@H]3N)[C@@H](N)C[C@H]2N)OC[C@]1(C)O [Sisomycin] | >1000 |  | 1.3 | >1000 µM | 1.27 and 1.38 and 1.37 | >1000 | 1 ± 0.1 |  |  | 2.6 | 4.0 |  | 2.596 ± 0.428 | 4 ± 0.5 | 2.96 µM and 2.70 µM and 2.13 µM | 3.55 and 3.95 and 4.47 | >30 |  |  |  |  |
